Literature values as cited in US20160081962A1, “N[…] DIETARY S[…] ACIDS AND NITRITE” (NITROMEGA CORP., priority 2013, published 2016).

Details: exogenous NO3^− intake 10 mg/kg in humans; in 30 min

SMILES: O=[N+]([O-])O [NO3^−, nitrate]
- increase of plasma NO2^− concentration: up to four- to five-fold
